Data reported in US11964943B2, “3,5-diarylidenyl-n-substituted-piperid-4-one-derived inhibitors of Stat3 pathway activity and uses thereof” (priority 2017, dated 2024).

Assays:
Type in all cases: cell-based
γ-H2AX = γ-H2AX immunofluorescence staining; settings: DU145, 1.2 μM 18 h then 60 μM cisplatin 1 h
Procedure: For Stat3, pStat3 staining, 2.5×10^4 cells/ml were plated on 13-mm glass cover slip (VWR) in 24 well plates, allowed to adhere and processed the next day. Cells were treated with IE-8 for 18 h, and subsequently washed in ice cold PBS and fixed with 2% paraformaldehyde PFA (Alfa Aesar) for 10 min at room temperature, followed by permeabilization with PBS containing 0.5% Triton X-100 for 10 min. Cells were blocked in PBS 5% BSA for 1 h at ambient temperature. Respective proteins were identified by incubation for 4 h with anti-Stat3 and anti-pStat3 rabbit polyclonal antibodies (1:1000, Cell signalling) or anti-phospho-Histone H2A.X mouse monoclonal (1:500; Millipore) diluted in a PBS 1% BSA buffer. Cells were incubated with a secondary fluorescent conjugated antibody Alexa Fluor 488 (1:500; Life Technologies) for 2 h at RT. Nuclei were stained using propidium iodide (2 μg/ml; Sigma-Aldrich) and mounted on glass slides with mounting medium (Dako).
To quantify γ-H2AX foci from images obtained using the protocol above, the program CellProfiler was utilized. Each cell nucleus was identified and the number of foci within computationally counted. The number of foci was taken as an average from the first 30 cells measured with a detection threshold of 0.3.

[1] = tested on: cisplatin-produced DNA interstrand crosslinks; experiment: Modified single cell gel electrophoresis (comet) assay
Procedure: The following procedure for the modified single-cell gel electrophoresis (comet) assay [Hartley. J. M., et al. Drug-DNA Interact. Protoc. Methods Mol. Biol. 2010, 613, 267] was applied to measure DNA interstrand crosslinking (ICL) induced by platinum drug in DU145 and A549 cells. Exponentially growing cells were treated for 1 h with different concentrations of cisplatin and collected after 0, 9, 24 and 48 h. All procedures were carried out on ice. Cells were diluted to a final concentration of 2.5×10^4 cells/ml and irradiated with X-ray (15 Gy) in order to deliver a fixed number of random DNA strand breaks (except for the untreated unirradiated control). Cells were embedded in 1% agarose on a precoated microscope slide, and each sample was prepared in duplicate. […] Images were captured using an on-line CCD camera and analysed using the Komet Analysis software 4.02 (Andor Technology, Belfast, UK). […] 25 cells were analysed. The tail moment for each image was calculated as the product of the percentage of DNA in the comet tail and the distance between the means of the head and tail distributions (Olive P. L., et al, Radiat Res 122, 86). DNA ICL after drug treatment was expressed as the percentage decrease in tail moment compared with irradiated controls calculated by the formula: % Decrease in tail moment=[1−(TMdi−TMcu/Tci−TMcu)]×100 […]

[2] = tested on: A2780-cisplatin resistant spheroids; experiment: CellTiter-Glo 3D cell viability assay, A2780-cisplatin resistant spheroids; settings: 96 h exposure, 3D CellTiter-Glo
Procedure: For cell spheroid formation, HCT116-oxaliplatin resistant cells, A2780-cisplatin resistant cells, and HT1080 cells were seeded in Corning® Spheroid opaque-walled 96 well Microplates (ultra-low attachment; Nuclon™ Sphera™, Thermofisher) at densities of 2000 cells/well in 100 μl of cell solution and allowed to grow for 4 days, before any manipulation.
At the end of drug incubation, both the plates and the CellTitre-Glo® reagent (previously thawn overnight in the fridge) were equilibrated at room temperature for at least 30 min. Subsequently, 100 μl of cell solution were carefully removed from each well, without disrupting the spheroid and equal volume of CellTitre-Glo® reagent was added. Cell lysis was performed by vigorously shaking the plate for 5 min. To stabilize the luminescent signal, the plate was incubated in the dark at RT for another 30 min before luminescence was recorded on a plate reader. The cell viability of treated samples was normalised to the untreated controls.
The cytotoxicity studies in spheroids were conducted using the CellTiter-Glo® 3D Cell viability assay (Promega) following the instructions of the manufacturer.

DU145 cells = experiment: Live cell microscopy; settings: DU145, increasing concentration over 24 h
Procedure: 5×10^4 DU145 cells were seeded in 8-well chamber slides (Ibidi, Martinsried, Germany). After 24 h, cells were treated with the denoted concentration (μM) IE-8 and intracellular drug accumulation was imaged at 3 h intervals on a live cell microscope (Visitron Systems, Puchheim, Germany) using a 40× oil immersion DIC objective and VisiView® software.
LEDs were used for widefield DIC and fluorescence (436/20 nm excitation and 480/40 nm bandpass filter for (CFP) fluorescence illumination (Visitron Systems). Images were taken with a sCMOS 4.2MPxl digital camera.

COc1cc(/C=C2\CN(c3ccccc3)C/C(=C\c3cc(OC)c(OC)c(OC)c3)C2=O)cc(OC)c1OC [IE-8, 3,5-Di(3,4,5-trimethoxybenzylidene)-1-phenylpiperidin-4-one]
DNA-damage response to cisplatin (γ-H2Ax induction) (γ-H2AX): enhanced
persistence of DNA ICLs in combination treatment ([1]; DU145, IE-8 pretreatment then cisplatin 1 h): up to 48 h
unhooking (repair) of cisplatin-produced DNA ICLs ([1]; DU145 and A549 cells, IE-8 pretreatment overnight or 1 h before cisplatin): impairs the ‘unhooking’ of the cisplatin-produced ICLs
IC50 [2]: 3.01 ± 0.41 µM
cytoplasmic vacuolisation (DU145 cells): induced cytoplasmic vacuolisation
